Values joined by “and” are separate entries in the source; they are usually repeats but may differ in a detail not shown here. Equal values may be shown once. ± gives the expanded uncertainty stated by the source.
Conditions: Fluid (supercritical or subcritical phases), Buoyancy - hydrostatic balance with magnetic suspension - two sinkers

CCC [propane]
mass density (315 K, 774.95 kPa): 14.7169 ± 0.0042 kg/m3 and 14.7168 ± 0.0042 kg/m3 | mass density (315 K, 774.96 kPa): 14.7169 ± 0.0042 kg/m3 and 14.7168 ± 0.0042 kg/m3 | mass density (315 K, 1306.4 kPa): 27.9201 ± 0.0071 kg/m3 and 27.9221 ± 0.0071 kg/m3 | mass density (315 K, 1306.5 kPa): 27.9244 ± 0.0072 kg/m3 | mass density (315 K, 1306.6 kPa): 27.927 ± 0.0071 kg/m3 and 27.926 ± 0.0071 kg/m3 | mass density (320 K, 270.24 kPa): 4.64 ± 0.0029 kg/m3 and 4.6399 ± 0.0029 kg/m3 and 4.6398 ± 0.0029 kg/m3 | mass density (320 K, 476.69 kPa): 8.4338 ± 0.0034 kg/m3 and 8.4339 ± 0.0034 kg/m3 | mass density (320 K, 789.41 kPa): 14.6898 ± 0.0041 kg/m3 | mass density (320 K, 789.42 kPa): 14.69 ± 0.0041 kg/m3 | mass density (320 K, 789.43 kPa): 14.6907 ± 0.0041 kg/m3 and 14.6901 ± 0.0041 kg/m3 | mass density (320 K, 1333.7 kPa): 27.726 ± 0.53 kg/m3 | mass density (320 K, 1333.9 kPa): 27.7763 ± 0.53 kg/m3 | mass density (320 K, 1334.3 kPa): 27.7883 ± 0.53 kg/m3 | mass density (320 K, 1334.6 kPa): 27.742 ± 0.53 kg/m3 | mass density (320 K, 1335 kPa): 27.8035 ± 0.53 kg/m3 | mass density (320 K, 2017.4 kPa): 457.1 ± 0.15 kg/m3 | mass density (320 K, 2018.5 kPa): 457.104 ± 0.15 kg/m3 | mass density (320 K, 2018.7 kPa): 457.105 ± 0.15 kg/m3 | mass density (320 K, 2018.8 kPa): 457.104 ± 0.15 kg/m3 | mass density (320 K, 2019.1 kPa): 457.105 ± 0.15 kg/m3 | mass density (320 K, 2019.3 kPa): 457.11 ± 0.15 kg/m3 | mass density (320 K, 2019.4 kPa): 457.108 ± 0.15 kg/m3 | mass density (320 K, 2019.5 kPa): 457.11 ± 0.15 kg/m3 | mass density (320 K, 2019.8 kPa): 457.109 ± 0.15 kg/m3 and 457.107 ± 0.15 kg/m3 and 457.108 ± 0.15 kg/m3 | mass density (320 K, 2019.9 kPa): 457.109 ± 0.15 kg/m3 | mass density (320 K, 4080.8 kPa): 466.418 ± 0.057 kg/m3 | mass density (320 K, 4080.9 kPa): 466.42 ± 0.057 kg/m3 | mass density (320 K, 4081 kPa): 466.419 ± 0.057 kg/m3 | mass density (320 K, 4081.3 kPa): 466.42 ± 0.057 kg/m3 | mass density (320 K, 4081.6 kPa): 466.42 ± 0.057 kg/m3 | mass density (320 K, 8257.8 kPa): 481.065 ± 0.058 kg/m3 | mass density (320 K, 8258.1 kPa): 481.068 ± 0.058 kg/m3 | mass density (320 K, 8258.4 kPa): 481.067 ± 0.058 kg/m3 and 481.068 ± 0.058 kg/m3 | mass density (320 K, 10347 kPa): 487.109 ± 0.059 kg/m3 and 487.106 ± 0.059 kg/m3 and 487.107 ± 0.059 kg/m3 | mass density (320 K, 10348 kPa): 487.113 ± 0.059 kg/m3 and 487.107 ± 0.059 kg/m3 | mass density (320 K, 10349 kPa): 487.112 ± 0.059 kg/m3 | mass density (320 K, 12003 kPa): 491.44 ± 0.06 kg/m3 | mass density (320 K, 12004 kPa): 491.44 ± 0.06 kg/m3 and 491.441 ± 0.06 kg/m3 | mass density (320 K, 16094 kPa): 500.965 ± 0.061 kg/m3 | mass density (320 K, 16095 kPa): 500.967 ± 0.061 kg/m3 | mass density (320 K, 16096 kPa): 500.967 ± 0.061 kg/m3 | mass density (320 K, 20063 kPa): 508.971 ± 0.062 kg/m3 and 508.967 ± 0.062 kg/m3 and 508.969 ± 0.062 kg/m3 | mass density (320 K, 20064 kPa): 508.969 ± 0.062 kg/m3 and 508.971 ± 0.062 kg/m3 | mass density (320 K, 24069 kPa): 516.143 ± 0.062 kg/m3 | mass density (320 K, 24072 kPa): 516.146 ± 0.062 kg/m3 and 516.148 ± 0.062 kg/m3 and 516.147 ± 0.062 kg/m3 | mass density (320 K, 29981 kPa): 525.489 ± 0.064 kg/m3 | mass density (320 K, 29983 kPa): 525.494 ± 0.064 kg/m3 | mass density (320 K, 29985 kPa): 525.495 ± 0.064 kg/m3 | mass density (320 K, 29986 kPa): 525.497 ± 0.064 kg/m3 | mass density (320 K, 35299 kPa): 532.943 ± 0.064 kg/m3 | mass density (320 K, 35300 kPa): 532.945 ± 0.064 kg/m3 and 532.943 ± 0.064 kg/m3 | mass density (320 K, 35301 kPa): 532.945 ± 0.064 kg/m3 | mass density (325 K, 803.73 kPa): 14.6629 ± 0.0041 kg/m3 and 14.6627 ± 0.0041 kg/m3 and 14.6626 ± 0.0041 kg/m3 | mass density (325 K, 803.74 kPa): 14.6631 ± 0.0041 kg/m3 and 14.6629 ± 0.0041 kg/m3 | mass density (325 K, 1340.6 kPa): 27.0793 ± 0.032 kg/m3 | mass density (325 K, 1340.9 kPa): 27.1015 ± 0.032 kg/m3 | mass density (325 K, 1341.2 kPa): 27.0724 ± 0.032 kg/m3 | mass density (325 K, 1341.8 kPa): 27.0948 ± 0.032 kg/m3 | mass density (330 K, 278.72 kPa): 4.6293 ± 0.0029 kg/m3 [middle of 4 runs] | mass density (330 K, 492.57 kPa): 8.4128 ± 0.0033 kg/m3 and 8.4127 ± 0.0033 kg/m3 | mass density (330 K, 492.58 kPa): 8.4128 ± 0.0033 kg/m3 and 8.4127 ± 0.0033 kg/m3 | mass density (330 K, 817.85 kPa): 14.6343 ± 0.0041 kg/m3 | mass density (330 K, 817.86 kPa): 14.6347 ± 0.0041 kg/m3 and 14.6346 ± 0.0041 kg/m3 and 14.6343 ± 0.0041 kg/m3 | mass density (330 K, 817.87 kPa): 14.6348 ± 0.0041 kg/m3 | mass density (330 K, 1346.8 kPa): 26.4281 ± 0.034 kg/m3 | mass density (330 K, 1347 kPa): 26.4322 ± 0.034 kg/m3 | mass density (330 K, 1347.2 kPa): 26.4396 ± 0.034 kg/m3 | mass density (330 K, 1347.3 kPa): 26.4407 ± 0.034 kg/m3 and 26.4409 ± 0.034 kg/m3 | mass density (330 K, 1714.5 kPa): 36.5728 ± 0.039 kg/m3 [middle of 5 runs] | mass density (335 K, 1765.2 kPa): 36.7322 ± 0.25 kg/m3 and 36.7333 ± 0.25 kg/m3 and 36.7309 ± 0.25 kg/m3 | mass density (335 K, 1765.3 kPa): 36.7327 ± 0.25 kg/m3 and 36.733 ± 0.25 kg/m3 | mass density (340 K, 287.12 kPa): 4.6188 ± 0.0029 kg/m3 and 4.6185 ± 0.0029 kg/m3 | mass density (340 K, 287.13 kPa): 4.6186 ± 0.0029 kg/m3 | mass density (340 K, 508.31 kPa): 8.392 ± 0.0033 kg/m3 and 8.3919 ± 0.0033 kg/m3 | mass density (340 K, 508.32 kPa): 8.3921 ± 0.0033 kg/m3 | mass density (340 K, 508.33 kPa): 8.3921 ± 0.0033 kg/m3 | mass density (340 K, 846.05 kPa): 14.5839 ± 0.0041 kg/m3 | mass density (340 K, 846.06 kPa): 14.584 ± 0.0041 kg/m3 and 14.5839 ± 0.0041 kg/m3 | mass density (340 K, 846.07 kPa): 14.5839 ± 0.0041 kg/m3 | mass density (340 K, 1352.2 kPa): 25.1571 ± 0.032 kg/m3 | mass density (340 K, 1352.4 kPa): 25.1613 ± 0.032 kg/m3 and 25.1637 ± 0.032 kg/m3 | mass density (340 K, 1352.5 kPa): 25.161 ± 0.032 kg/m3 | mass density (340 K, 1352.7 kPa): 25.168 ± 0.032 kg/m3 | mass density (340 K, 1816.9 kPa): 36.9173 ± 0.043 kg/m3 | mass density (340 K, 1817.1 kPa): 36.9239 ± 0.043 kg/m3 and 36.9243 ± 0.043 kg/m3 | mass density (340 K, 2355.2 kPa): 55.4656 ± 0.27 kg/m3 | mass density (340 K, 2355.4 kPa): 55.4825 ± 0.27 kg/m3 and 55.4906 ± 0.27 kg/m3 | mass density (340 K, 2355.5 kPa): 55.5083 ± 0.27 kg/m3 | mass density (340 K, 2355.8 kPa): 55.4793 ± 0.27 kg/m3 | mass density (340 K, 3925.4 kPa): 425.071 ± 0.072 kg/m3 and 425.069 ± 0.072 kg/m3 | mass density (340 K, 3925.5 kPa): 425.072 ± 0.072 kg/m3 | mass density (340 K, 3925.6 kPa): 425.073 ± 0.072 kg/m3 and 425.071 ± 0.072 kg/m3 and 425.072 ± 0.072 kg/m3 | mass density (340 K, 3925.7 kPa): 425.072 ± 0.072 kg/m3 and 425.071 ± 0.072 kg/m3 | mass density (340 K, 3925.8 kPa): 425.071 ± 0.072 kg/m3 and 425.072 ± 0.072 kg/m3 | mass density (340 K, 8053.4 kPa): 448.649 ± 0.055 kg/m3 | mass density (340 K, 8053.5 kPa): 448.65 ± 0.055 kg/m3 | mass density (340 K, 8053.6 kPa): 448.651 ± 0.055 kg/m3 | mass density (340 K, 8053.8 kPa): 448.649 ± 0.055 kg/m3 | mass density (340 K, 8054.1 kPa): 448.649 ± 0.055 kg/m3 | mass density (340 K, 12040 kPa): 464.072 ± 0.057 kg/m3 and 464.071 ± 0.057 kg/m3 | mass density (340 K, 12041 kPa): 464.071 ± 0.057 kg/m3 | mass density (340 K, 16069 kPa): 476.246 ± 0.058 kg/m3 and 476.247 ± 0.058 kg/m3 and 476.248 ± 0.058 kg/m3 | mass density (340 K, 16070 kPa): 476.248 ± 0.058 kg/m3 | mass density (340 K, 19781 kPa): 485.636 ± 0.059 kg/m3 | mass density (340 K, 19783 kPa): 485.642 ± 0.059 kg/m3 and 485.644 ± 0.059 kg/m3 | mass density (340 K, 19784 kPa): 485.647 ± 0.059 kg/m3 [middle of 4 runs] | mass density (340 K, 19785 kPa): 485.649 ± 0.059 kg/m3 | mass density (340 K, 19943 kPa): 485.999 ± 0.059 kg/m3 | mass density (340 K, 19946 kPa): 486.007 ± 0.059 kg/m3 and 486.009 ± 0.059 kg/m3 and 486.006 ± 0.059 kg/m3 | mass density (340 K, 19947 kPa): 486.007 ± 0.059 kg/m3 | mass density (340 K, 23981 kPa): 494.781 ± 0.06 kg/m3 and 494.78 ± 0.06 kg/m3 | mass density (340 K, 23982 kPa): 494.781 ± 0.06 kg/m3 | mass density (340 K, 29812 kPa): 505.708 ± 0.061 kg/m3 | mass density (340 K, 29815 kPa): 505.714 ± 0.061 kg/m3 | mass density (340 K, 29816 kPa): 505.715 ± 0.061 kg/m3 and 505.712 ± 0.061 kg/m3 | mass density (340 K, 29817 kPa): 505.713 ± 0.061 kg/m3

— the NIST ThermoML archive (doi:10.1021/je900124n)
